Assay results taken from publication PMC6946680, “Modulation of brain cation-Cl^− cotransport via the SPAK kinase inhibitor ZT-1a” (Nature Communications, 2020).

Tests used:
Experiment in all cases: Kinase profiling panel
Type in all cases: biochemical
GCK = tested on: GCK
Method: (§1) Supplementary Table 2. ZT-1a kinase profiling data6.
(§2) ZT-1a was tested at 10 and 1 µM against a panel of 140 recombinant kinases in an enzymatic
(§3) activity-based assay performed by the International Centre for Kinase Profiling in the MRC
(§4) Protein Phosphorylation and Ubiquitylation Unit. Values represent % residual kinase activity

SmMLCK = tested on: SmMLCK
Method: as §1, §2, §3, §4

PRK2 = tested on: PRK2
Method: as §1, §2, §3, §4

Aurora B = tested on: Aurora B
Method: as §1, §2, §3, §4

HIPK1 = tested on: HIPK1
Method: as §1, §2, §3, §4

MPSK1 = tested on: MPSK1
Method: as §1, §2, §3, §4

TTBK2 = tested on: TTBK2
Method: as §1, §2, §3, §4

OSR1 = tested on: OSR1
Method: as §1, §2, §3, §4

NEK2a = tested on: NEK2a
Method: as §1, §2, §3, §4

CK2 = tested on: CK2
Method: as §1, §2, §3, §4

BTK = tested on: BTK
Method: as §1, §2, §3, §4

MNK2 = tested on: MNK2
Method: as §1, §2, §3, §4

PDGFRA = tested on: PDGFRA
Method: as §1, §2, §3, §4

CHK1 = tested on: CHK1
Method: as §1, §2, §3, §4

EPH-B4 = tested on: EPH-B4
Method: as §1, §2, §3, §4

DYRK2 = tested on: DYRK2
Method: as §1, §2, §3, §4

MARK3 = tested on: MARK3
Method: as §1, §2, §3, §4

MEKK1 = tested on: MEKK1
Method: as §1, §2, §3, §4

MAPKAP-K2 = tested on: MAPKAP-K2
Method: as §1, §2, §3, §4

MSK1 = tested on: MSK1
Method: as §1, §2, §3, §4

JNK1 = tested on: JNK1
Method: as §1, §2, §3, §4

EPH-A2 = tested on: EPH-A2
Method: as §1, §2, §3, §4

ERK8 = tested on: ERK8
Method: as §1, §2, §3, §4

IR = tested on: IR
Method: as §1, §2, §3, §4

PAK6 = tested on: PAK6
Method: as §1, §2, §3, §4

MELK = tested on: MELK
Method: as §1, §2, §3, §4

HIPK2 = tested on: HIPK2
Method: as §1, §2, §3, §4

MINK1 = tested on: MINK1
Method: as §1, §2, §3, §4

Src = tested on: Src
Method: as §1, §2, §3, §4

CHK2 = tested on: CHK2
Method: as §1, §2, §3, §4

JAK2 = tested on: JAK2
Method: as §1, §2, §3, §4

IGF-1R = tested on: IGF-1R
Method: as §1, §2, §3, §4

MAP4K3 = tested on: MAP4K3
Method: as §1, §2, §3, §4

PKA = tested on: PKA
Method: as §1, §2, §3, §4

PAK4 = tested on: PAK4
Method: as §1, §2, §3, §4

RSK1 = tested on: RSK1
Method: as §1, §2, §3, §4

PDK1 = tested on: PDK1
Method: as §1, §2, §3, §4

HER4 = tested on: HER4
Method: as §1, §2, §3, §4

VEG-FR = tested on: VEG-FR
Method: as §1, §2, §3, §4

HIPK3 = tested on: HIPK3
Method: as §1, §2, §3, §4

CSK = tested on: CSK
Method: as §1, §2, §3, §4

CK1γ2 = tested on: CK1γ2
Method: as §1, §2, §3, §4

TrkA = tested on: TrkA
Method: as §1, §2, §3, §4

PINK = tested on: PINK
Method: as §1, §2, §3, §4

## Cc1cc(C(C#N)c2ccc(Cl)cc2)c(Cl)cc1NC(=O)c1cc(Cl)ccc1O (stereo not shown) [ZT-1a, 5-chloro-N-(5-chloro-4-((4-chlorophenyl)(cyano)methyl)-2-methylphenyl)-2-hydroxybenzamide]
GCK; 1 µM
  % residual kinase activity: 112±4%
GCK; 10 µM
  % residual kinase activity: 97±3%
SmMLCK; 1 µM
  % residual kinase activity: 99±3%
SmMLCK; 10 µM
  % residual kinase activity: 98±9%
PRK2; 1 µM
  % residual kinase activity: 118±4%
PRK2; 10 µM
  % residual kinase activity: 120±7%
Aurora B; 1 µM
  % residual kinase activity: 119±6%
Aurora B; 10 µM
  % residual kinase activity: 92±15%
HIPK1; 1 µM
  % residual kinase activity: 98±13%
HIPK1; 10 µM
  % residual kinase activity: 90±4%
MPSK1; 1 µM
  % residual kinase activity: 110±6%
MPSK1; 10 µM
  % residual kinase activity: 105±2%
TTBK2; 1 µM
  % residual kinase activity: 101±32%
TTBK2; 10 µM
  % residual kinase activity: 98±34%
OSR1; 1 µM
  % residual kinase activity: 106±9%
OSR1; 10 µM
  % residual kinase activity: 98±3%
NEK2a; 1 µM
  % residual kinase activity: 85±12%
NEK2a; 10 µM
  % residual kinase activity: 91±6%
CK2; 1 µM
  % residual kinase activity: 72±15%
CK2; 10 µM
  % residual kinase activity: 59±16%
BTK; 1 µM
  % residual kinase activity: 113±1%
BTK; 10 µM
  % residual kinase activity: 73±2%
MNK2; 1 µM
  % residual kinase activity: 100±7%
MNK2; 10 µM
  % residual kinase activity: 105±3%
PDGFRA; 1 µM
  % residual kinase activity: 84±11%
PDGFRA; 10 µM
  % residual kinase activity: 80±7%
CHK1; 1 µM
  % residual kinase activity: 111±11%
CHK1; 10 µM
  % residual kinase activity: 109±8%
EPH-B4; 1 µM
  % residual kinase activity: 100±8%
EPH-B4; 10 µM
  % residual kinase activity: 151±33%
DYRK2; 1 µM
  % residual kinase activity: 111±15%
DYRK2; 10 µM
  % residual kinase activity: 97±10%
MARK3; 1 µM
  % residual kinase activity: 71±6%
MARK3; 10 µM
  % residual kinase activity: 68±8%
MEKK1; 1 µM
  % residual kinase activity: 109±1%
MEKK1; 10 µM
  % residual kinase activity: 93±16%
MAPKAP-K2; 1 µM
  % residual kinase activity: 91±13%
MAPKAP-K2; 10 µM
  % residual kinase activity: 13±7%
MSK1; 1 µM
  % residual kinase activity: 114±6%
MSK1; 10 µM
  % residual kinase activity: 112±14%
JNK1; 1 µM
  % residual kinase activity: 106±4%
JNK1; 10 µM
  % residual kinase activity: 110±5%
EPH-A2; 1 µM
  % residual kinase activity: 89±23%
EPH-A2; 10 µM
  % residual kinase activity: 78±11%
ERK8; 1 µM
  % residual kinase activity: 104±11%
ERK8; 10 µM
  % residual kinase activity: 63±3%
IR; 1 µM
  % residual kinase activity: 105±2%
IR; 10 µM
  % residual kinase activity: 86±13%
PAK6; 1 µM
  % residual kinase activity: 69±2%
PAK6; 10 µM
  % residual kinase activity: 75±4%
MELK; 1 µM
  % residual kinase activity: 130±34%
MELK; 10 µM
  % residual kinase activity: 63±3%
HIPK2; 1 µM
  % residual kinase activity: 90±14%
HIPK2; 10 µM
  % residual kinase activity: 91±4%
MINK1; 1 µM
  % residual kinase activity: 107±5%
MINK1; 10 µM
  % residual kinase activity: 108±6%
Src; 1 µM
  % residual kinase activity: 107±4%
Src; 10 µM
  % residual kinase activity: 84±13%
CHK2; 1 µM
  % residual kinase activity: 106±1%
CHK2; 10 µM
  % residual kinase activity: 68±6%
JAK2; 1 µM
  % residual kinase activity: 125±6%
JAK2; 10 µM
  % residual kinase activity: 123±8%
IGF-1R; 1 µM
  % residual kinase activity: 145±2%
IGF-1R; 10 µM
  % residual kinase activity: 123±3%
MAP4K3; 1 µM
  % residual kinase activity: 134±5%
MAP4K3; 10 µM
  % residual kinase activity: 88±2%
PKA; 1 µM
  % residual kinase activity: 80±11%
PKA; 10 µM
  % residual kinase activity: 50±2%
PAK4; 1 µM
  % residual kinase activity: 81±16%
PAK4; 10 µM
  % residual kinase activity: 51±3%
RSK1; 1 µM
  % residual kinase activity: 95±2%
RSK1; 10 µM
  % residual kinase activity: 87±4%
PDK1; 1 µM
  % residual kinase activity: 92±6%
PDK1; 10 µM
  % residual kinase activity: 69±17%
HER4; 1 µM
  % residual kinase activity: 85±8%
HER4; 10 µM
  % residual kinase activity: 84±1%
VEG-FR; 1 µM
  % residual kinase activity: 113±10%
VEG-FR; 10 µM
  % residual kinase activity: 88±28%
HIPK3; 1 µM
  % residual kinase activity: 84±3%
HIPK3; 10 µM
  % residual kinase activity: 76±2%
CSK; 1 µM
  % residual kinase activity: 96±8%
CSK; 10 µM
  % residual kinase activity: 106±29%
CK1γ2; 1 µM
  % residual kinase activity: 112±12%
CK1γ2; 10 µM
  % residual kinase activity: 124±23%
TrkA; 1 µM
  % residual kinase activity: 108±9%
TrkA; 10 µM
  % residual kinase activity: 91±7%
PINK; 1 µM
  % residual kinase activity: 101±13%
PINK; 10 µM
  % residual kinase activity: 59±4%
